The record followed here is BindingDB's records for doi:10.1016/j.bmcl.2014.02.013 (Bristol-Myers Squibb, 2014).

pIC50: −log10 of the molar value.

This assay can be described thus: Antagonist activity at CCR2 in human monocytes assessed as reduction of chemotaxis in presence of […] BSA.
For the compound `CC(C)N(C)[C@@H]1CC[C@H](N2CC[C@H](NC(=O)c3cccc(C(F)(F)F)c3)C2=O)[C@H](CS(C)(=O)=O)C1`, the pIC50 (in general, the IC50 on a negative log10 scale, so that one unit is a factor of ten) was 8.59.
Under `CCS(=O)(=O)C[C@@H]1C[C@H](N(C)C(C)C)CC[C@@H]1N1CC[C@H](NC(=O)c2cccc(C(F)(F)F)c2)C1=O` stands 9.22.
In the case of `CC(C)N(C)[C@@H]1CC[C@H](N2CC[C@H](NC(=O)c3cccc(C(F)(F)F)c3)C2=O)[C@H](CS(=O)(=O)C(C)C)C1`, the pIC50 was 9.70.
The result for `CC(C)N(C)[C@@H]1CC[C@H](N2CC[C@H](NC(=O)c3cccc(C(F)(F)F)c3)C2=O)[C@H](CS(=O)(=O)C(C)(C)C)C1` reads 9.70.
